# Values joined by “and” are separate entries in the source; they are usually repeats but may differ in a detail not shown here. Equal entries are not always repeated.
# How the values were obtained:
# inguinal sWAT = assay: Monitoring browning of subcutaneous WAT after CL 316,243 treatment; format: in vivo, C57BL6 mice; conditions: CL 316,243 1.0 mg/kg i.p. for 12 days
# Method: (§1) Two-month old C57BL6 mice (n=5) were i.p. injected CL 316,243 (100 uL, 1.0 mg/kg) for 12 days, and the control mice (n=5) were i.p. injected with saline. On the 13th day, both groups were imaged after i.v. injection of CRANAD-29. Images were acquired at 1-, 2-, 4-hours after the probe injection. After the last imaging session, inguinal sWAT were dissected after scarification of the mice, and the dissected sWAT tissue was subjected to qPCR for UCP-1 expression and H&E staining
# UCP-1 = assay: qPCR for UCP-1 expression in dissected sWAT; format: in vivo, C57BL6 mice; conditions: CL 316,243 1.0 mg/kg i.p. for 12 days
# Method: as §1
# brown adipose cells = assay: Ex vivo histology of dissected BAT slices; parameters: species or system mice; conditions: fluorescence microscopy
# Method: (§2) Next the time course of CRANAD-2 and CRANAD-3 accumulation in BAT area was investigated. […] Similarly, the signal of CRANAD-3 reached the uptake peak around one hour, and then gradually washed out (FIG. 8c-d). Accumulation of CRANAD-2 and -3 in BAT was further confirmed with ex vivo histology of the dissected BAT slices, performed as follows. The dissected BAT was fixed with 4% formalin at 4° C. overnight, and then embedded into OCT. BAT tissue was cut into 7 micron thickness slices, washed with PBS buffer, and co-stained with DAPI (Vectra Shield, Vector Lab, Burlingame, Calif.). Images were acquired with fast exposure to capture the dye signal in the oil droplets. To outline cell membrane cell autofluorescence was captured with long exposure after image of the dye signal from oil droplets was already acquired. To further validate the capacity of CRANAD-29 for BAT labeling, ex vivo histological microscopic imaging with CRANAD-29 was conducted. […] Gold standard H&E staining also provided similar images (FIG. 10a). […] The injection dose of CRANAD-29 was optimized, and the fluorescence signal reached its plateau at 0.4 mg/kg (FIG. 11). In the following studies, 0.1 mg/kg dose was used.
# [1] = test system: BAT cells induced from wild-type brown preadipocytes; assay: In vitro staining of BMPs-induced BAT cells (live cell confocal); format: cell-based; conditions: live cell confocal images
# interscapular BAT [2] = assay: Time course and dose optimization of probe signal in BAT area after i.v. injection; format: in vivo, mice; conditions: mouse, in vivo, iv
# Method: as §2
# [3] = Excitation and emission wavelengths of BAT imaging agents; format: physicochemical
# Method: In some embodiments, the methods include irradiating the mammal with light of the appropriate wavelength to excite the BAT imaging agent, and detecting emissions therefrom.
# Fluorescent dyes were purchased from Exciton Inc. (Dayton, Ohio) and Invitrogen. The reagents used for the synthesis were purchased from Aldrich and used without further purification. Column chromatography was performed on silica gel (SiliCycle Inc., 60 Å, […]) slurry packed into glass columns. 1H, 13C NMR spectra were recorded at 500 MHz and 125 MHz respectively, and reported in ppm downfield from tetramethylsilane. Fluorescence studies were carried out using a F-4500 Fluorescence Spectrophotometer (Hitachi). Mass spectra were obtained at Harvard University, Department of Chemistry Instrumentation Facility. Microscopic images were acquired with Nikon Eclipse 50i microscope. In vivo NIR imaging was performed using the IVIS® Spectrum animal imaging system (Caliper LifeSciences, Perkin Elmer, Hopkinton, Mass.), and data analysis was conducted using LivingImage® 4.2.1 software.
# interscapular BAT [4] = assay: Re-testing of hits with stepwise dissection and NIR imaging; format: in vivo, mice
# Method: Like protein/cell-based screening, hit re-testing experiments were conducted to validate the reliability of this approach. CRANAD-2, -3, LDS 722 and Rhodamine 640 were subjected to re-testing by repeating the above imaging procedure. Images were acquired one hour after probe injection.
# Next, stepwise dissection and imaging were performed to track the source of the fluorescence contrast at the interscapular site. Skin and the thin WAT layer that covers BAT were first removed, and then BAT was dissected, and NIR images were captured at each step. […] The signal contribution from BAT (R(BAT)) was roughly estimated using the ratio of fluorescence signals acquired after (F(BAT)) and before (F(intact)) the first step dissection of skin and WAT.
# interscapular BAT [5] = assay: Top-down whole-organism NIR fluorescence screening of dyes (ROI1/ROI2 contrast); format: in vivo, nude mice; conditions: for Ratio No 1 (ROI1/ROI2 average fluorescence intensity) / Ratio No 2 (ROI1/ROI2 average fluorescence intensity) / Ratio No 3 (ROI1/ROI2 average fluorescence intensity) / Ratio AVERAGE (mean ratio ROI1/ROI2): nude mice, one hour post-injection; for Ratio No 1 (ROI1/ROI2 average fluorescence intensity) / Ratio No 2 (ROI1/ROI2 average fluorescence intensity) / Ratio No 3 (ROI1/ROI2 average fluorescence intensity): 10 μg/mouse i.v.; for Ratio No 1 (ROI1/ROI2 average fluorescence intensity): first excitation/emission filter pair; for Ratio No 2 (ROI1/ROI2 average fluorescence intensity): second excitation/emission filter pair; for Ratio No 3 (ROI1/ROI2 average fluorescence intensity): third excitation/emission filter pair; for Ratio AVERAGE (mean ratio ROI1/ROI2): i.v., mean of three filter pairs, hit threshold >1.10
# Method: 38 fluorescent dyes from commercial resources and from the inventors' laboratory were screened. Dyes with excitation range of 550-745 nm, emission range of 600-840 nm, and with molecular weight of less than 700 Da (except Cy5.5) (representative dyes are listed in FIG. 1d and the full list is shown in Table 2). Their hydrophobicities were not determined. The library was screened by intravenous tail injection of compounds into nude mice (10μg/mouse). Each dye was imaged with three optimized excitation/emission filter-pairs, and images at one hour after i.v. injection were acquired.
# Top-down whole organism screening was performed as follows. Nude mice (nu/nu COX7) were purchased from Massachusetts General Hospital and Balb/c mice were from Jackson Laboratory. All animal experimental procedures were approved by the Institutional Animal Care and Use Committee (IACUC) at Massachusetts General Hospital. Dye stock solutions were prepared in DMSO. The final injection solution (0.1 mg/ml) was freshly prepared in a mixed solution of 20% DMSO, 20% Cremophor EL and 60% saline. Nude mice (n=5) were injected with a 100 μL dye solution via tail vein. For each imaging session, mice were anesthetized with a mixture of oxygen and isoflurane for 5 minutes, and then positioned into the imaging chamber of IVIS® Spectrum in vivo pre-clinical imaging system. Images were acquired at one-hour post-injection using sequence imaging with three excitation/emission filter pairs for each dye.
# Hits selection was performed as follows. Hits from cell- or protein-based screening are usually selected by setting certain threshold. In the case of the top-down imaging screening, two methods were used (threshold and visible contrast) to select hits. First, three images obtained with three excitation/emission pairs were selected for each dye. These ex/em pairs were selected from the closest excitation and emission wavelengths of the tested dyes. For instance, 605/660 nm, 605/680 nm, 640/680 nm were selected for image acquisition of Nile blue (625/660 nm). The quantification of contrast for each image was calculated as a ratio of two ROIs (region of interest). ROI1 reflected the average signal from interscapular BAT and ROI2 was the average signal of the area that included BAT and white adipose tissue (WAT) around the interscapular site (FIG. 1b, left). The averaged fluorescent signal of ROI was used instead of the total signal, because the total signal depends on the area of ROI, whereas the averaged signal reflects the density of signal. The ratio of ROI1/ROI2 could reflect the signal/noise ratio of the tested probe, and could also reflect the selectivity of the probe for BAT over WAT. For each dye, three ROI1/ROI2 ratios obtained with the three filter pairs were calculated. The mean of the ratios was used as the threshold. If the mean ratio was >1.10, the dye was selected as a potential positive hit (FIG. 1c). Since the contrast of a dye in the top-down screening is in the visible range, the visible contrast around the interscapular BAT area was also tested for the hits with the mean ratio of >1.10. If both mean ratio and the visible contrast were positive, then the hit was subjected to re-testing procedure to validate its reliability as described below.
# Although CRANAD-2 and CRANAD-3 were able to provide certain contrast for BAT in vivo, their excitation and emission wavelengths were still shorter than required for an ideal NIR imaging probe (both excitation and emission >640 nm). […] To seek better probes, a sub-library was synthesized based on the structures of the lead probes CRANAD-2 and -3. CRANAD-6, -19, -22, -24, -26, -32 and -43 were synthesized and tested (images and chemical structures, excitation and emission spectra are shown in FIG. 9 a-e). […] However, the ROI1/ROI2 ratio of CRANAD-22 was not improved (FIG. 9c).
# interscapular BAT [6] = assay: PET imaging with 18F-labeled curcumin analogue; format: in vivo, mice; conditions: 100-180 μCi tail vein
# Method: PET imaging was conducted with a microPET P4 system (Concorde Microsystems Incorporated, Knoxville, Tenn., USA). The imaging parameters of this system are in-plane and axial resolution of 1.2 mm full width at half maximal count. Prior to PET imaging, mice were anesthetized with isoflurane/O2, and then fixed to the imaging table with a custom-fabricated mold. Injection catheter was placed in tail vein for administration of the radiotracer. Subsequently, CRANAD-5F^18 (100-180 μCi) was injected into the tail vein and volumetric dynamic data were acquired in list-mode format for 120 min. Imaging data were corrected for uniformity, attenuation, decay, and acquisition time. PET images were reconstructed using filtered back projection with a Ramp filter (cutoff value of 0.5). The software, ASIPro 6.0, was provided by the microPET manufacturer.
# [7] = test system: undifferentiated 3T3-L1 cells; assay: Probe uptake in undifferentiated 3T3-L1 cells (IVIS imaging); format: cell-based
# Method: (§3) To investigate the facilitated diffusion of CRANAD-2, the time courses of CRANAD-2 uptake in 3T3-L1 cells were compared before and after differentiation. Two-photon imaging for 3T3-L1 cells was performed as follows. Fibroblast 3T3-L1 cells were differentiated following the protocol provided by Zenbio, Inc. (protocol No. ZBM0009.02). Ten microliters of CRANAD-2 (250 μM in DMSO) was added to the differentiated cells (1.0 ml). Cells were imaged after 10 min of incubation. A 940 nm laser was first used to capture an image for CRANAD-2 in 570-620 nm channel (Prairie Two-photon microscope, Middleton, Wis.). Next, the laser was tuned to 750 nm to capture autofluorescence of the cells to outline cell morphology.
# (§4) IVIS imaging of 3T3-L1 cells with CRANAD-2 was performed as follows. To a 6-well plate seeded with preadipocytes or differentiated adipocytes, a 10 μL solution of CRANAD-2 (250 μM in DMSO) was added. The plate was subjected to imaging using IVIS imaging system with Ex=605 nm, Em=660 nm before and after addition of CRANAD-2. For triglyceride competition, the same protocol for two-photon imaging was used. The images were acquired at 20 min after addition of CRANAD-2. Studies were performed in triplicate.
# (§5) The uptake of CRANAD-29 in 3T3-L1 cells before and after differentiation was compared. IVIS imaging of 3T3-L1 cells with CRANAD-29 was performed as follows. To a 6-well plate seeded with preadipocytes or differentiated adipocytes, a 10 μL solution of CRANAD-29 (250 μM in DMSO) was added. The plate was subjected to imaging using IVIS imaging system with Ex=640 nm, Em=700 nm before and after addition of CRANAD-29. For triglyceride competition and Hexarelin inhibition, the similar protocol for CRANAD-2 imaging was used. The final concentration of hexarelin was 12.5 μM, and the images were acquired at 3 hours after addition of CRANAD-29 and triglyceride/Hexarelin. Studies were performed in triplicate.
# [8] = test system: differentiated 3T3-L1 cells; assay: Probe uptake in differentiated 3T3-L1 cells (IVIS and two-photon imaging, competition); format: cell-based
# Method: as §3
# For triglyceride competition, stock solutions of CRANAD-2 (250 μM) and triglyceride (5 mM) in DMSO were prepared. Before imaging, 10 μl of the stock solution was added to the cells.
# as §4, §5
smiles,measurement,setting,value
"C[C@H](Cc1ccc2c(c1)OC(C(=O)[O-])(C(=O)[O-])O2)NC[C@H](O)c1cccc(Cl)c1.[Na+].[Na+] [CL 316,243]",H&E staining of sWAT slice of treated mice,inguinal sWAT,cells with multilocular lipid droplets
same,"UCP-1 mRNA level in sWAT, treated mice vs control group",UCP-1,7.9 fold
CCN(CC)c1ccc(/C=C/C2=CC(/C=C/c3ccc(N(CC)CC)nc3)=[O+][B-](F)(F)O2)cn1 [CRANAD-3],labeling in ex vivo histology of BAT slices,brown adipose cells,labeled oil droplets in brown adipose cells
same,staining of oil droplets in BAT cells,[1],able to clearly label oil droplets in BAT cells
same,time of uptake peak in BAT area,interscapular BAT [2],around one
same,Emission λ,[3],660 nm
same,Excitation λ,[3],570 nm
same,"R(BAT), signal contribution from BAT, F(BAT)/F(intact)","interscapular BAT [4]; fluorescence after vs before dissection of skin and WAT, roughly estimated",0.51
same,contrast among the re-tested dyes,interscapular BAT [4]; images one hour after probe injection,highest contrast
same,fluorescence signal from BAT (before vs after BAT removal),interscapular BAT [4]; stepwise dissection,able to label BAT
same,selectivity for BAT (over WAT),interscapular BAT [4]; stepwise dissection,low
same,visible contrast around the interscapular BAT area,interscapular BAT [5]; in vivo NIR images,best contrast and clear triangular contour
same,Ratio No 1 (ROI1/ROI2 average fluorescence intensity),interscapular BAT [5],1.34E+00
same,Ratio No 2 (ROI1/ROI2 average fluorescence intensity),interscapular BAT [5],1.33E+00
same,Ratio No 3 (ROI1/ROI2 average fluorescence intensity),interscapular BAT [5],1.31E+00
same,Ratio AVERAGE (mean ratio ROI1/ROI2),interscapular BAT [5],1.32 and 1.32E+00
CN(C)c1ccc(C=CC(O)=CC(=O)C=Cc2ccc(N(C)CC[18F])cc2)cc1 [CRANAD-5F],in vivo PET imaging of BAT,interscapular BAT [6],clearly highlighted BAT at the interscapular site
CC[N+](CC)=c1ccc2nc3c(cc(N)c4ccccc43)oc-2c1 [Nile Blue],uptake in undifferentiated cells over the time course,[7],rapidly reached the plateau
same,uptake in differentiated cells over the time course,[8]; differentiated 3T3-L1 cells,rapidly reached the plateau
same,uptake with triglyceride competition,"[8]; triglyceride added with probe, two-photon microscopy and IVIS",no significant decrease in uptake
same,Ratio No 1 (ROI1/ROI2 average fluorescence intensity),interscapular BAT [5],1.00E+00
same,Ratio No 2 (ROI1/ROI2 average fluorescence intensity),interscapular BAT [5],9.89E−01
same,Ratio No 3 (ROI1/ROI2 average fluorescence intensity),interscapular BAT [5],9.62E−01
same,Ratio AVERAGE (mean ratio ROI1/ROI2),interscapular BAT [5],9.84E−01

# Reference: patent US9757477B2, “Imaging brown adipose tissue with curcumin derivatives” (The General Hospital Corporation, priority 2013, dated 2017)
